Laboratory results from patent publication US20250223296A1, “HYDROXYMETHYL AZABICYCLO[2.2.1]HEPTANES AND MEDICAL USES THEREOF” (ATROGI AB, priority 2022, published 2025).

Columns and labels:
[1] = tested on: L6-myotubes; experiment: Measurement of intracellular cAMP levels in differentiated L6 cells; format: cell-based; conditions: Rattus norvegicus, L6, 0.25 h, compound at 10 µM (1×10^−5 M), 15 min, vs isoproterenol at 10 µM, read-out: Biological example 2: intracellular cAMP levels, activity compared to that of isoproterenol
Protocol: L6-myoblasts were grown in Dulbecco's Modified Eagle's Medium (DMEM) containing 1 g/L glucose supplemented with 10% fetal bovine serum, 2 mM L-Glutamine, 50 U/ml penicillin, 50 μg/mL streptomycin and 10 mM HEPES. Cells were plated at 1×10^5 cells per mL in 24-well plates. After reaching 90% confluence the cells were grown in medium containing 2% FBS for 7 days where upon cells differentiated into myotubes. Differentiated cells were serum-starved overnight and stimulated with an agonist, final concentration 1×10^−5 M, for 15 min in stimulation buffer (HBSS supplemented with 1% BSA, 5 mM HEPES and 1 mM IBMX, pH 7.4). The medium was aspirated and 100 μL of 95% EtOH was added to each well of the 24-well plate and cells were kept at −20° C. overnight. The EtOH was allowed to evaporate and 500 μL of lysis buffer (1% BSA, 5 mM HEPES and 0.3% Tween-20, pH 7.4) was added to each well. The plate was kept at −80° C. for 30 min and then at −20° C. until the day of detection when the samples were thawed. Intracellular cAMP levels were detected using an alpha screen CAMP kit (6760635D from Perkin Elmer). The activity for each compound is compared to that of isoproterenol.

[2] = tested on: L6-myotubes; experiment: Glucose uptake (3H-2-deoxyglucose) in differentiated L6-myotubes; format: cell-based; conditions: compound at 10 µM (1×10^−5 M) vs isoproterenol at 10 µM, read-out: Biological example 1: glucose uptake, activity compared to that of isoproterenol
Protocol: L6-myoblasts were grown in Dulbecco's Modified Eagle's Medium (DMEM) containing 1 g/L glucose supplemented with 10% fetal bovine serum, 2 mM L-Glutamine, 50 U/ml penicillin, 50 μg/mL streptomycin and 10 mM HEPES. Cells were plated at 1×10^5 cells per mL in 24-well plates. After reaching 90% confluence the cells were grown in medium containing 2% FBS for 7 days where upon cells differentiated into myotubes. Differentiated L6-myotubes were serum-starved overnight in medium containing 0.5% fatty-acid free BSA and stimulated with an agonist, with a final concentration of 1×10^−5 M. After 1 h 40 min the cells were washed with warm glucose free medium or PBS twice and another portion of agonist was added to the glucose free medium. After 20 min the cells were exposed to 50 nM ^3H-2-deoxyglucose for another 10 min before washed in ice cold glucose free medium or PBS three times and lysed in 400 μL/well 0.2 M NaOH for 1 h at 60° C. The cell lysate was mixed with 4 mL scintillation buffer (Emulsifier Safe, Perkin Elmer) and the radioactivity was detected in a β-counter (Tri-Carb 4810TR, Perkin Elmer). The activity for each compound is compared to that of isoproterenol.

Row | SMILES | Emax at 10 µM [1] [%] | Emax at 10 µM [2] [%]
1 | O[C@H](c1cccc(F)c1)C12CCC(COCc3ccc(Cl)cc3)(CC1)N2 [Example 1, (R)-(4-(((4-Chlorobenzyl)oxy)methyl)-7-azabicyclo[2.2.1]heptan-1-yl)(3-fluorophenyl)methanol] | < 25 | > 75
2 | O[C@@H](c1cccc(F)c1)C12CCC(COCc3ccc(Cl)cc3)(CC1)N2 [Example 2, (S)-(4-(((4-Chlorobenzyl)oxy)methyl)-7-azabicyclo[2.2.1]heptan-1-yl)(3-fluorophenyl)methanol] | < 25 | 50 to 75
3 | O[C@H](c1cccc(F)c1)C12CCC(COCc3ccc(F)cc3)(CC1)N2 [Example 3, (R)-(4-(((4-Fluorobenzyl)oxy)methyl)-7-azabicyclo[2.2.1]heptan-1-yl)(3-fluorophenyl)methanol] | 25 to 50 | > 75
4 | O[C@@H](c1cccc(F)c1)C12CCC(COCc3ccc(F)cc3)(CC1)N2 [Example 4, (S)-(4-(((4-Fluorobenzyl)oxy)methyl)-7-azabicyclo[2.2.1]heptan-1-yl)(3-fluorophenyl)methanol] | < 25 | 25 to 50
5 | O[C@H](c1cncc(F)c1)C12CCC(COCc3ccc(F)cc3)(CC1)N2 [Example 5, (R)-(4-(((4-Fluorobenzyl)oxy)methyl)-7-azabicyclo[2.2.1]heptan-1-yl)(5-fluoropyridin-3-yl)methanol] | 25 to 50 | > 75
6 | O[C@@H](c1cncc(F)c1)C12CCC(COCc3ccc(F)cc3)(CC1)N2 [Example 6, (S)-(4-(((4-Fluorobenzyl)oxy)methyl)-7-azabicyclo[2.2.1]heptan-1-yl)(5-fluoropyridin-3-yl)methanol] | < 25 | 50 to 75
7 | O[C@H](c1cccc(F)c1)C12CCC(Cc3ccccc3)(CC1)N2 [Example 7, (R)-(4-Benzyl-7-azabicyclo[2.2.1]heptan-1-yl)(3-fluorophenyl)methanol] | 25 to 50 | > 75
8 | O[C@@H](c1cccc(F)c1)C12CCC(Cc3ccccc3)(CC1)N2 [Example 8, (S)-(4-Benzyl-7-azabicyclo[2.2.1]heptan-1-yl)(3-fluorophenyl)methanol] | < 25 | 50 to 75
9 | COc1ccc(CC23CCC([C@H](O)c4cccc(F)c4)(CC2)N3)cc1 [Example 9, (R)-(3-Fluorophenyl)(4-(4-methoxybenzyl)-7-azabicyclo[2.2.1]heptan-1-yl)methanol] | < 25 | > 75
10 | COc1ccc(CC23CCC([C@@H](O)c4cccc(F)c4)(CC2)N3)cc1 [Example 10, (S)-(3-Fluorophenyl)(4-(4-methoxybenzyl)-7-azabicyclo[2.2.1]heptan-1-yl)methanol] | < 25 | 50 to 75
11 | O[C@H](c1cccc(F)c1)C12CCC(Cc3ccc(F)cc3)(CC1)N2 [Example 11, (R)-(4-(4-Fluorobenzyl)-7-azabicyclo[2.2.1]heptan-1-yl)-(3-fluoro-phenyl)methanol] | < 25 | > 75
12 | O[C@@H](c1cccc(F)c1)C12CCC(Cc3ccc(F)cc3)(CC1)N2 [Example 12, (S)-(4-(4-Fluorobenzyl)-7-azabicyclo[2.2.1]heptan-1-yl)-(3-fluorophenyl)methanol] | < 25 | 50 to 75
13 | CO[C@H]1CC[C@H](CCC23CCC([C@H](O)c4cccc(F)c4)(CC2)N3)CC1 [Example 13, (R)-(3-Fluorophenyl)(4-(2-(trans-4-methoxycyclohexyl)ethyl)-7-azabicyclo[2.2.1]heptan-1-yl)methanol] | 50 to 75 | > 75
14 | CO[C@H]1CC[C@H](CCC23CCC([C@@H](O)c4cccc(F)c4)(CC2)N3)CC1 [Example 14, (S)-(3-Fluorophenyl)(4-(2-((trans)-4-methoxycyclohexyl)ethyl)-7-aza-bicyclo[2.2.1]heptan-1-yl)methanol] | < 25 | 50 to 75
15 | O[C@H](c1cccc(F)c1)C12CCC(COCc3ccc(OC(F)(F)F)cc3)(CC1)N2 [Example 15, (R)-(3-Fluorophenyl)(4-(((4-(trifluoromethoxy)benzyl)oxy)methyl)-7-azabicyclo[2.2.1]heptan-1-yl)methanol] | < 25 | < 25
16 | O[C@@H](c1cccc(F)c1)C12CCC(COCc3ccc(OC(F)(F)F)cc3)(CC1)N2 [Example 16] | < 25 | < 25
17 | O[C@H](c1cncc(F)c1)C12CCC(COCc3ccc(OC(F)(F)F)cc3)(CC1)N2 [Example 17, (R)-(5-Fluoropyridin-3-yl)(4-(((4-(trifluoromethoxy)benzyl)oxy)-methyl)-7-azabicyclo[2.2.1]heptan-1-yl)methanol] | < 25 | 50 to 75
18 | O[C@@H](c1cncc(F)c1)C12CCC(COCc3ccc(OC(F)(F)F)cc3)(CC1)N2 [Example 18, (S)-(5-Fluoropyridin-3-yl)(4-(((4-(trifluoromethoxy)benzyl)oxy)methyl)-7-azabicyclo[2.2.1]heptan-1-yl)methanol] | < 25 | < 25
19 | O[C@H](c1cccc(F)c1)C12CCC(Cc3ccc(OC(F)(F)F)cc3)(CC1)N2 [Example 19, (R)-(3-Fluorophenyl)(4-(4-(trifluoromethoxy)benzyl)-7-azabicyclo-[2.2.1]heptan-1-yl)methanol] | < 25 | < 25
20 | O[C@@H](c1cccc(F)c1)C12CCC(Cc3ccc(OC(F)(F)F)cc3)(CC1)N2 [Example 20, (S)-(3-Fluorophenyl)(4-(4-(trifluoromethoxy)benzyl)-7-azabicyclo-[2.2.1]heptan-1-yl)methanol] | < 25 | < 25
21 | CS(=O)(=O)N(Cc1ccccc1)c1ccc(CC23CCC([C@H](O)c4cccc(F)c4)(CC2)N3)cc1 [Example 21] | < 25 | 25 to 50
22 | CS(=O)(=O)N(Cc1ccccc1)c1ccc(CC23CCC([C@@H](O)c4cccc(F)c4)(CC2)N3)cc1 [Example 22, N-Benzyl-N-(4-((4-((S)-(3-fluorophenyl)(hydroxy)methyl)-7-aza-bicyclo[2.2.1]heptan-1-yl)methyl)phenyl)methanesulfonamide] | < 25 | 25 to 50
23 | CS(=O)(=O)N(Cc1ccccc1)c1cccc(CC23CCC([C@H](O)c4cccc(F)c4)(CC2)N3)c1 [Example 23, N-Benzyl-N-(3-((4-((R)-(3-fluorophenyl)(hydroxy)methyl)-7-aza-bicyclo[2.2.1]heptan-1-yl)methyl)phenyl)methanesulfonamide] | < 25 | 50 to 75
24 | CS(=O)(=O)N(Cc1ccccc1)c1cccc(CC23CCC([C@@H](O)c4cccc(F)c4)(CC2)N3)c1 [Example 24, N-Benzyl-N-(3-((4-((S)-(3-fluorophenyl)(hydroxy)methyl)-7-aza-bicyclo[2.2.1]heptan-1-yl)methyl)phenyl)methanesulfonamide] | < 25 | 50 to 75
25 | CS(=O)(=O)Nc1ccc(CC23CCC([C@H](O)c4cccc(F)c4)(CC2)N3)cc1 [Example 25, N-(4-((4-((R)-(3-Fluorophenyl)(hydroxy)methyl)-7-azabicyclo[2.2.1]-heptan-1-yl)methyl)phenyl)methanesulfonamide] | < 25 | 50 to 75
26 | CS(=O)(=O)Nc1ccc(CC23CCC([C@@H](O)c4cccc(F)c4)(CC2)N3)cc1 [Example 26, N-(4-((4-((S)-(3-Fluorophenyl)(hydroxy)methyl)-7-azabicyclo[2.2.1]-heptan-1-yl)methyl)phenyl)methanesulfonamide] | < 25 | 50 to 75
27 | CS(=O)(=O)Nc1cccc(CC23CCC([C@H](O)c4cccc(F)c4)(CC2)N3)c1 [Example 27, N-(3-((4-((R)-(3-Fluorophenyl)(hydroxy)methyl)-7-azabicyclo-[2.2.1]heptan-1-yl)methyl)phenyl)methanesulfonamide] | < 25 | 50 to 75
28 | CS(=O)(=O)Nc1cccc(CC23CCC([C@@H](O)c4cccc(F)c4)(CC2)N3)c1 [Example 28, N-(3-((4-((S)-(3-Fluorophenyl)(hydroxy)methyl)-7-azabicyclo[2.2.1]-heptan-1-yl)methyl)phenyl)methanesulfonamide] | < 25 | 50 to 75
